Here are results for one compound from PMC11369081, “Molecular mechanism of prolactin-releasing peptide recognition and signaling via its G protein-coupled receptor” (Cell Discovery, 2024).

Holding throughout (format): cell-based
In one assay the target is T1, PrRPR F313A (Homo sapiens, UniProt P49683, F313A).
T1 construct: Flag; expressed in transfected cells; host or cells: AD293 cells
Put plainly: BRET2 Gi dissociation, F313A. The note with it: F313A (7.31), Gi-coupling, AD293 cells; mean ± S.E.M., n = 3; P <0.0001 vs WT; read-out: BRET2 pEC50 (converted). Here is the method: (§1) AD293 cells (Agilent) were propagated in Dulbecco’s Modified Eagle Medium (DMEM, Thermo Fisher Scientific), enriched with 10% fetal bovine serum (FBS, Thermo Fisher Scientific), and maintained at 37 °C in a 5% CO2 environment. Cells were then seeded in 6-well dishes at a density of 130,000–150,000 cells per mL and allowed to incubate overnight. On the next day, cells were transfected with plasmids at a 1:1:1:1 ratio for receptor:Gα-RLuc8:Gβ:Gγ-GFP2[52]. PEI MAX 40 K (BIOHUB) was utilized to form complex with the plasmids at a ratio of 3 µL PEI per µg of plasmids, in OptiMEM (Gibco-Thermo Fisher Scientific) at a concentration of 10 ng plasmids per µL OptiMEM. After 24 h of incubation, the culture was harvested by centrifugation with PBS. The cell suspension was then allocated into a white 384-well plate at a volume of 30 µL per well, followed by the addition of 10 µL of freshly prepared 50 µM coelenterazine 400a (Yeasen). Following a 15-min equilibration period, cells were treated with 10 µL of ligand for an additional 5 min. Plates were subsequently read in a BioTek Synergy H1 microplate reader (BioTek) equipped with 395 nm (RLuc8-coelenterazine 400a) and 510 nm (GFP2) emission filters. BRET2 ratios were calculated as the ratio of the GFP2 emission to RLuc8 emission. Data were normalized to the baseline response of the ligand. […]
For orientation: Bioluminescence resonance energy transfer reports proximity on the nanometre scale.

The target in another assay is T2, PrRPR L229A (Homo sapiens, UniProt P49683, L229A).
T2 construct: Flag; expressed in transfected cells; host or cells: AD293 cells
Put plainly: BRET2 Gi dissociation, L229A. The note with it: L229A (5.42), Gi-coupling, AD293 cells; mean ± S.E.M., n = 3; P <0.0001 vs WT; read-out: BRET2 pEC50 (converted). Here is the method:
as §1

For a further assay, the target named is T3, PrRPR Y120A (Homo sapiens, UniProt P49683, Y120A).
T3 construct: expressed in transfected cells; host or cells: AD293 cells
The experiment in a line: BRET2 Gi dissociation, Y120A. The note with it: Y120A (2.64), Gi-coupling, AD293 cells; mean ± S.E.M., n = 3; P <0.0001 vs WT; read-out: BRET2 pEC50 (converted). The procedure: as §1

The target of the next assay is T4, PrRPR Q317A (Homo sapiens, UniProt P49683, Q317A).
T4 construct: Flag; expressed in transfected cells; host or cells: AD293 cells
Put plainly: BRET2 Gi dissociation, Q317A. The note with it: Q317A (7.35), Gi-coupling, AD293 cells; mean ± S.E.M., n = 3; P <0.0001 vs WT; read-out: BRET2 pEC50 (converted). The procedure: as §1

Assay [1] deals with T5, PrRPR E213A (Homo sapiens, UniProt P49683, E213A).
T5 construct: expressed in transfected cells; host or cells: AD293 cells
Put plainly: BRET2 Gi dissociation, E213A. The note with it: E213A (45.52), Gi-coupling, AD293 cells; mean ± S.E.M., n = 3; P <0.0001 vs WT; read-out: BRET2 pEC50 (converted). Here is the method:
as §1

In assay [2] the target is T6, PrRPR H295A (Homo sapiens, UniProt P49683, H295A).
T6 construct: Flag; expressed in transfected cells; host or cells: AD293 cells
The experiment in a line: BRET2 Gi dissociation, H295A. The note with it: H295A (6.52), Gi-coupling, AD293 cells; mean ± S.E.M., n = 3; P 0.8032 vs WT; read-out: BRET2 pEC50 (converted). Here is the method:
as §1

A further assay deals with T7, PrRPR D302A (Homo sapiens, UniProt P49683, D302A).
T7 construct: Flag; expressed in transfected cells; host or cells: AD293 cells
The experiment in a line: BRET2 Gi dissociation, D302A. The note with it: D302A (6.59), Gi-coupling, AD293 cells; mean ± S.E.M., n = 3; P <0.0001 vs WT; read-out: BRET2 pEC50 (converted). The procedure: as §1

For assay [3], the target named is T5, PrRPR E213A. Put plainly: BRET2 Gq dissociation, E213A. The note with it: E213A (45.52), Gq-coupling, AD293 cells; mean ± S.E.M., n = 3; P <0.0001 vs WT; read-out: BRET2 pEC50 (converted). Here is the method: as §1, with “Following a 15-min equilibration period, cells were treated with 10 µL of ligand for an additional 5 min.” left out, “emission.” for “emission. Data were normalized to the baseline response of the ligand.”
(§2) Supplementary Fig. S4 | Effects of mutations in the ligand-binding pocket and G protein intereface of Gq coupled PrRPR by BRET2 assay. […] BRET2 assay signals were measured after stimulation with PrRP20. […]

The target of another assay is T8, PrRPR C113A (Homo sapiens, UniProt P49683, C113A).
T8 construct: expressed in transfected cells; host or cells: AD293 cells
The experiment in a line: BRET2 Gq dissociation, C113A. The note with it: C113A (2.57), Gq-coupling, AD293 cells; mean ± S.E.M., n = 3; P 0.0007 vs WT; read-out: BRET2 pEC50 (converted). The procedure: as §1, with “Following a 15-min equilibration period, cells were treated with 10 µL of ligand for an additional 5 min.” left out, “emission.” for “emission. Data were normalized to the baseline response of the ligand.”
as §2

A further assay deals with T9, PrRPR Q141A (Homo sapiens, UniProt P49683, Q141A).
T9 construct: expressed in transfected cells; host or cells: AD293 cells
Put plainly: BRET2 Gq dissociation, Q141A. The note with it: Q141A (3.32), Gq-coupling, AD293 cells; mean ± S.E.M., n = 3; P 0.0059 vs WT; read-out: BRET2 pEC50 (converted). The procedure:
as §1, with “Following a 15-min equilibration period, cells were treated with 10 µL of ligand for an additional 5 min.” left out, “emission.” for “emission. Data were normalized to the baseline response of the ligand.”
as §2

Assay [4] has as its target T6, PrRPR H295A. The experiment in a line: BRET2 Gq dissociation, H295A. The note with it: H295A (6.52), Gq-coupling, AD293 cells; mean ± S.E.M., n = 3; P <0.0001 vs WT; read-out: BRET2 pEC50 (converted). Here is the method: as §1, with “Following a 15-min equilibration period, cells were treated with 10 µL of ligand for an additional 5 min.” left out, “emission.” for “emission. Data were normalized to the baseline response of the ligand.”
as §2

The target of the next assay is T10, PrRPR L210A (Homo sapiens, UniProt P49683, L210A).
T10 construct: expressed in transfected cells; host or cells: AD293 cells
The experiment in a line: BRET2 Gq dissociation, L210A. The note with it: L210A (ECL2), Gq-coupling, AD293 cells; mean ± S.E.M., n = 3; P <0.0001 vs WT; read-out: BRET2 pEC50 (converted). Here is the method:
as §1, with “Following a 15-min equilibration period, cells were treated with 10 µL of ligand for an additional 5 min.” left out, “emission.” for “emission. Data were normalized to the baseline response of the ligand.”
as §2

Peptide text beside a SMILES is read from it.

T5 sequence (P49683 whole entry E213A): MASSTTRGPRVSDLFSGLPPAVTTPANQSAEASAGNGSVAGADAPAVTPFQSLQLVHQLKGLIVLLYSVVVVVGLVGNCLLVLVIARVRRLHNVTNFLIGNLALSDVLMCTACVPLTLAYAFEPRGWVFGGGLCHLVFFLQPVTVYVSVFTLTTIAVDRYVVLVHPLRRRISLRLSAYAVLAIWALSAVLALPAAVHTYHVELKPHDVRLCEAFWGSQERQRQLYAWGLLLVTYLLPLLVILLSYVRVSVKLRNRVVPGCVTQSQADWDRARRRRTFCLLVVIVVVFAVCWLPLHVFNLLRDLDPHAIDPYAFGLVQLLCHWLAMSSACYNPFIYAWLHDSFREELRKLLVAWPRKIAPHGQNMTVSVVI
T6 sequence (P49683 whole entry H295A): as the sequence (P49683 whole entry E213A) above, with A213E, H295A counted along it
T1 sequence (P49683 whole entry F313A): as the sequence (P49683 whole entry E213A) above, with A213E, F313A counted along it
T9 sequence (P49683 whole entry Q141A): as the sequence (P49683 whole entry E213A) above, with Q141A, A213E counted along it
T3 sequence (P49683 whole entry Y120A): as the sequence (P49683 whole entry E213A) above, with Y120A, A213E counted along it
T10 sequence (P49683 whole entry L210A): as the sequence (P49683 whole entry E213A) above, with L210A, A213E counted along it
T2 sequence (P49683 whole entry L229A): as the sequence (P49683 whole entry E213A) above, with A213E, L229A counted along it
T8 sequence (P49683 whole entry C113A): as the sequence (P49683 whole entry E213A) above, with C113A, A213E counted along it
T7 sequence (P49683 whole entry D302A): as the sequence (P49683 whole entry E213A) above, with A213E, D302A counted along it
T4 sequence (P49683 whole entry Q317A): as the sequence (P49683 whole entry E213A) above, with A213E, Q317A counted along it

Turning to `CC[C@H](C)[C@H](NC(=O)CNC(=O)[C@H](CCCNC(=N)N)NC(=O)[C@H](CO)NC(=O)[C@H](C)NC(=O)[C@H](Cc1ccc(O)cc1)NC(=O)[C@H](Cc1c[nH]c2ccccc12)NC(=O)[C@H](C)NC(=O)[C@@H]1CCCN1C(=O)[C@H](CC(N)=O)NC(=O)[C@@H](NC(=O)[C@H](CC(=O)O)NC(=O)[C@@H]1CCCN1C(=O)[C@@H](N)[C@@H](C)O)[C@@H](C)CC)C(=O)N[C@@H](CCCNC(=N)N)C(=O)N1CCC[C@H]1C(=O)N[C@H](C(=O)NCC(=O)N[C@@H](CCCNC(=N)N)C(=O)N[C@@H](Cc1ccccc1)C(N)=O)C(C)C` [PrRP20] (H-TPDINPAWYASRGIRPVGRF-NH2), the EC50 at PrRPR F313A is 14.8 nM; at PrRPR L229A it was 85.1 nM; at PrRPR Y120A, 3390 nM; at PrRPR Q317A it was 4170 nM; on PrRPR E213A [1], 1380 nM; at PrRPR H295A [2] it was 3.02 nM. The EC50 on PrRPR D302A is 1120 nM; on PrRPR E213A [3] it was 282 nM; at PrRPR C113A it was 3.39 nM; on PrRPR Q141A, 3.02 nM; on PrRPR H295A [4] it was 4.79 nM; at PrRPR L210A it was 7.08 nM.
